The record followed here is publication PMC2982795 (Nature structural & molecular biology, 2009).

In experiment [1] the target is T1, hMSH2/MSH3 (Homo sapiens, UniProt P20585+P43246). The experiment is described as follows: fluorescence anisotropy competition, displacement of pre-bound BD-ADP. It counts as binding. (Fluorescence polarisation rises when a labelled molecule tumbles more slowly, as on binding a larger partner.)
Experiment [2] deals with T2, hMSH2/MSH6 (Homo sapiens, UniProt P43246+P52701). The experiment is described as follows: UV cross-linking of [alpha-32P]-ADP, SDS-PAGE. Format: binding.
Experiment [3] concerns the target T1, hMSH2/MSH3. The experiment in a line: UV cross-linking of [alpha-32P]-ADP, SDS-PAGE. The settings on record: 5 mM Mg2+; pH 8.1; no DNA; either hMSH2 or hMSH3 subunit. It counts as binding.
Experiment [4] has as its target T1, hMSH2/MSH3. The experiment in a line: UV cross-linking of [alpha-32P]-AMP-PNP, SDS-PAGE. The settings on record: +Mg2+; no DNA. It counts as binding.
Experiment [5] addresses T2, hMSH2/MSH6. The experiment is described as follows: fluorescence anisotropy, equilibrium binding. Particulars: no DNA, labelled compound.

Read-outs that look alike come from different tables or passages of the source.

T2 sequence (P43246 2-934): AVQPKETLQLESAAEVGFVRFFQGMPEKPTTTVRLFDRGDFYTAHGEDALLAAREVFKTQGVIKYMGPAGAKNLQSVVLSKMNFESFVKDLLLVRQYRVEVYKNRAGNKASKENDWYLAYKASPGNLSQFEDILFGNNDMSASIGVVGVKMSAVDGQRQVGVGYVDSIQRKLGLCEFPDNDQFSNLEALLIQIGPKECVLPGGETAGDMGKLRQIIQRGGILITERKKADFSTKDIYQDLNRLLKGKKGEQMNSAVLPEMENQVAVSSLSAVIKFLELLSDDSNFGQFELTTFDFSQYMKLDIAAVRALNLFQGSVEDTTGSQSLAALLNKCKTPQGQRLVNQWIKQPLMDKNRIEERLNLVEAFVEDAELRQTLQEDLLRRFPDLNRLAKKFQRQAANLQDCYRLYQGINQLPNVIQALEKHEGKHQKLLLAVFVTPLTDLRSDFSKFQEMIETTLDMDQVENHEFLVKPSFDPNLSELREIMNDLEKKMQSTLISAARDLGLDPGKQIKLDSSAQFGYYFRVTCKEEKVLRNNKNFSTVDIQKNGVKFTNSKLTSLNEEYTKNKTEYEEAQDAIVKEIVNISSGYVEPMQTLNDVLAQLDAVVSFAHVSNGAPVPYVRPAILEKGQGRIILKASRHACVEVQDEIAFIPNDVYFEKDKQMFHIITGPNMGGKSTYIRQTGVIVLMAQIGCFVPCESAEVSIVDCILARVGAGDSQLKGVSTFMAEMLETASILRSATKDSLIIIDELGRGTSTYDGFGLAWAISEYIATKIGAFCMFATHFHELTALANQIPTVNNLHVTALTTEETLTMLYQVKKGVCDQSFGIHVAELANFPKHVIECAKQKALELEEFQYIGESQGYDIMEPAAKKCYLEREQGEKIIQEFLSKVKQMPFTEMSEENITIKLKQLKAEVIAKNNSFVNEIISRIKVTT
T2 sequence (P52701 whole entry): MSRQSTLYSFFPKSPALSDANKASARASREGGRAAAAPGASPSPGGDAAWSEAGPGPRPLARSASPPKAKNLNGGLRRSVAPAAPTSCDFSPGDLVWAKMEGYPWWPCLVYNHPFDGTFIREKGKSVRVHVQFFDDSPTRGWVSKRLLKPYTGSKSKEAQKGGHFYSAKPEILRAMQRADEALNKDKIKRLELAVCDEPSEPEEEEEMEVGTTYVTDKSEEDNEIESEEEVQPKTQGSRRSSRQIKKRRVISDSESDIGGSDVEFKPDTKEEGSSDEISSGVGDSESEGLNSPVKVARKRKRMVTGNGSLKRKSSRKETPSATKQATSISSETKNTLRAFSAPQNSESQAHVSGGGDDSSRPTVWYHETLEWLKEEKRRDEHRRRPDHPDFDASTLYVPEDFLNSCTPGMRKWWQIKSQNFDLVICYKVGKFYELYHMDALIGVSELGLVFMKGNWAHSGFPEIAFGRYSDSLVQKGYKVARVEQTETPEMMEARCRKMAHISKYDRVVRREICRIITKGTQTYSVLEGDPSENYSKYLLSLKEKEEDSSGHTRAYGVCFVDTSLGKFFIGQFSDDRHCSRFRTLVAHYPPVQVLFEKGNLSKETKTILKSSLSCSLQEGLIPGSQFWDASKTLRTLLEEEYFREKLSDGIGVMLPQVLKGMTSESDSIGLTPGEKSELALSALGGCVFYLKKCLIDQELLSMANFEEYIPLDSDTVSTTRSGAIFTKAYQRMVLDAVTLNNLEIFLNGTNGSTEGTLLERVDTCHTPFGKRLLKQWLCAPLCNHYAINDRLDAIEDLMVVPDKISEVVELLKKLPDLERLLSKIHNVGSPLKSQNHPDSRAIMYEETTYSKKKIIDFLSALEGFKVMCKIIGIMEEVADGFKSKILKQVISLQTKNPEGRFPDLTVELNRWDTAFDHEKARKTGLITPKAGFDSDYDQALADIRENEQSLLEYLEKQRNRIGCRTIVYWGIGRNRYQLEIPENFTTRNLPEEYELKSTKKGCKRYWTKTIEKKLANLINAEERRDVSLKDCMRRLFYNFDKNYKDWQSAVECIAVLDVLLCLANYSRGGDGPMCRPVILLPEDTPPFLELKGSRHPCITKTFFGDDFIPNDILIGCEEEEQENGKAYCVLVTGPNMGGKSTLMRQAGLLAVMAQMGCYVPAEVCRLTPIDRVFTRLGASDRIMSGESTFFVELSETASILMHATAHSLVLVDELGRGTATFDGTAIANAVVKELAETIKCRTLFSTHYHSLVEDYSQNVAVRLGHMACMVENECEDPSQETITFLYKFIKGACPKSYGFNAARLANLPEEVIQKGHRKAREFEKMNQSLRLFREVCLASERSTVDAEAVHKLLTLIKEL
T1 sequence (P43246 2-934): as the sequence (P43246 2-934) above
T1 sequence (P20585 whole entry): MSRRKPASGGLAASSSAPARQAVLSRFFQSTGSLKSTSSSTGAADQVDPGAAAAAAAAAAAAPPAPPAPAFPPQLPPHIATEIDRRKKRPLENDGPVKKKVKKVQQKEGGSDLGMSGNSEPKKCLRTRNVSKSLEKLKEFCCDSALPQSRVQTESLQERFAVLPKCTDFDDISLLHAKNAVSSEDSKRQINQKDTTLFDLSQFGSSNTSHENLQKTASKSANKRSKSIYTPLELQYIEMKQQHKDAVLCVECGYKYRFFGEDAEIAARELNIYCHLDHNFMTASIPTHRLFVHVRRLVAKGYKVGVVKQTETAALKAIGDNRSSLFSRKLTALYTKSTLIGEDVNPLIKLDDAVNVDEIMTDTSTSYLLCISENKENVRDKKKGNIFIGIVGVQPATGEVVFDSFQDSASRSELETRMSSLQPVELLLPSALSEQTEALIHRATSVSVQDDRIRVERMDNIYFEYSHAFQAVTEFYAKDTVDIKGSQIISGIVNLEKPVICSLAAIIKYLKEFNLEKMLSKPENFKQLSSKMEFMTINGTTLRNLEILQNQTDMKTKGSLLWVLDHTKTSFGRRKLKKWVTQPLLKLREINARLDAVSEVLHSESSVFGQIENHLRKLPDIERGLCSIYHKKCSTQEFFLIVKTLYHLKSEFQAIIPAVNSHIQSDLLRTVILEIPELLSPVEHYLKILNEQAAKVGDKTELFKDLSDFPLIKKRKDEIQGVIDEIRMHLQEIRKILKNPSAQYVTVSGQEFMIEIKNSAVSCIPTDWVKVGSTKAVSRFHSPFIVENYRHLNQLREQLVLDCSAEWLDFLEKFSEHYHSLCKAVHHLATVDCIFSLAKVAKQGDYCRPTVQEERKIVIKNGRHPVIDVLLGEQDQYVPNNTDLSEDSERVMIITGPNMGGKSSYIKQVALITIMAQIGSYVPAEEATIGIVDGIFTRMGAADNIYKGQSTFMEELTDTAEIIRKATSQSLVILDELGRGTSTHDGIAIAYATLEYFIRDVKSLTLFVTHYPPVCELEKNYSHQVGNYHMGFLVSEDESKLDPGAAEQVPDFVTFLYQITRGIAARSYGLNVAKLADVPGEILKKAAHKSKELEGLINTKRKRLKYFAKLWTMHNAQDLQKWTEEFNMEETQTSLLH

The Ki is the equilibrium dissociation constant of an inhibitor or competing ligand from its target. On to `Nc1ncnc2c1ncn2[C@@H]1O[C@H](COP(=O)(O)OP(=O)(O)O)[C@@H](O)[C@H]1O` [ADP], for which the Ki result on hMSH2/MSH3 [1] (+Mg2+, no DNA, competitive, hMSH3 subunit) is “compare KD and Ki for ADP in Supplemental Fig. 1a,c”. The Kd on hMSH2/MSH6 [2] is 650 nM. Also, the KD entry at hMSH2/MSH3 [3] was “both subunits bound either nucleotide with high affinity, as quantified by the gel scans”. `Nc1ncnc2c1ncn2[C@@H]1O[C@H](COP(=O)(O)OP(=O)(O)NP(=O)(O)O)[C@@H](O)[C@H]1O` [AMP-PNP]: the Ki on hMSH2/MSH3 [1] worked out at 11300 nM. In addition, the KD entry on hMSH2/MSH3 [4] is recorded as “Results for x-linking with AMP-PNP displayed the same trend”. Turning to BD-AMP-PNP, the Kd on hMSH2/MSH6 [5] (read-out: binding affinity, +Mg2+) amounted to 230 nM. As to BD-ATP, the Kd on hMSH2/MSH6 [5] (no Mg2+ (non-hydrolyzing)) is 390 nM.
